# Results reported in EP4813381A1, “PHARMACEUTICAL USE OF GUAIANE SESQUITERPENE DERIVATIVE” (Nanjing University Of Chinese Medicine, priority 2023, dated 2025).
# What was measured:
# [1] = system: MC903-induced atopic dermatitis (AD); experiment: MC903-induced ear atopic dermatitis mouse model, Compound 1 ointment: ear thickness and dermatitis score; format: in vivo, mice; conditions: for ear thickness: 1% ointment
# Procedure: Weigh white petrolatum, light liquid paraffin, glyceryl monostearate, ethylparaben, and cetyl alcohol. Heat to 65 °C while stirring until dissolved. Slowly add the dissolved active pharmaceutical ingredient (API) while continuing to stir until uniformly mixed. Set aside. • (2) Aqueous Phase Preparation: […] Slowly add the aqueous phase to the oil phase while maintaining 65 °C, homogenize, and continue stirring for 30 min; • (4) Cooling: Stop heating, continue stirring, gradually reduce to room temperature, cool to form an ointment, and fill containers. […] Dissolve these substances in a small amount of propylene glycol, then place the resulting solution into the aforementioned pre-cooled blank ointment base. […] Skin Lesion Severity Score: […] Statistical analysis was performed on the data.
# [2] = system: Th2-related factors Il4, Il13, Il31 and inflammatory factors Tslp, Tnf, Il1; experiment: MC903-induced ear atopic dermatitis mouse model, Compound 1 ointment: Q-PCR of ear; format: in vivo; set-up: unit not given here; conditions: ear mRNA, AD mice, 1% ointment
# Procedure: Except for the Normal group, all other groups underwent AD modeling: 20 µL of MC903 solution (also known as calcipotriol, purchased from Shanghai Yuanye Biotechnology Co., Ltd., used for inducing atopic models) was applied to each mouse's ears once daily for 14 consecutive days to induce the atopic dermatitis model. […] Measure ear thickness changes every 2 days using an electronic caliper before modeling and after treatment initiation.
# [3] = system: inflammatory cytokines (TNF, IL-6, IL-1); experiment: LPS mouse sepsis model: Q-PCR of inflammatory factor mRNA in lung, liver and kidney; format: in vivo, C57BL/6 mice; conditions: sepsis mice, 5 mg/kg
# Text: Gently pipette to mix the above reagents. The reaction conditions are as follows:
# Detailed information is as follows:
# [4] = system: Human keratinocytes (Hacat); experiment: Hyaluronic acid and hyaluronidase levels in UVB-irradiated human keratinocytes; format: cell-based; conditions: UVB 90 mJ/cm^2, 24 h, 1 µM
# Procedure: Human keratinocytes (Hacat) were cultured routinely in DMEM medium containing 10% FBS within a 5% CO2 incubator.
# [5] = system: inflammatory factors Tslp, Tnf and Th2-associated factors Il4, Il13, Il31; experiment: MC903-induced ear atopic dermatitis mouse model, oral Compound 20: Q-PCR of ear; conditions: ear mRNA, AD mice, 5 mg/kg
# [6] = system: Rat mast cells (RBL-2H3); experiment: Mast cell degranulation test (anti-DNP IgE / DNP-HSA); format: cell-based; conditions: RBL-2H3, IgE+HSA, 4 h, 1 µM
# Procedure: Rat mast cells (RBL-2H3) were cultured routinely in DMEM medium containing 10% FBS within a 5% CO2 incubator. Upon reaching 70-80% confluence, cells were uniformly seeded at a density of 1 × 10^5 cells/mL into 6-well plates (2 mL per well), divided into the following groups: Normal, IgE+HSA, Compound 1 (0.01, 0.1, 1, 10 µM). Mast cells were sensitized with 500 µg/L anti-DNP IgE for 12 h. washed with PBS, and cultured for an additional 12 h with 100 µg/L DNP-HSA. Compound 1 at the specified concentrations was then added. […]
# [7] = system: MC903-induced atopic dermatitis (AD); experiment: MC903-induced ear atopic dermatitis mouse model, oral Compound 20: dermatitis score, ear thickness, serum IgE; conditions: 5 mg/kg
# [8] = system: MC903-induced atopic dermatitis (AD); experiment: MC903-induced AD model on the dorsum of mice, Compound 1 ointment: skin thickness and dermatitis score; format: in vivo; set-up: Skin thickness: unit not given here
# Procedure: Weigh white petrolatum, light liquid paraffin, glyceryl monostearate, ethylparaben, and cetyl alcohol. Heat to 65 °C while stirring until dissolved. Slowly add the dissolved active pharmaceutical ingredient (API) while continuing to stir until uniformly mixed. Set aside. • (2) Aqueous Phase Preparation: […] Slowly add the aqueous phase to the oil phase while maintaining 65 °C, homogenize, and continue stirring for 30 min; • (4) Cooling: Stop heating, continue stirring, gradually reduce to room temperature, cool to form an ointment, and fill containers. […] Dissolve these substances in a small amount of propylene glycol, then place the resulting solution into the aforementioned pre-cooled blank ointment base. […] Establishment of the AD Model on the Dorsum of Mice and Drug Administration: […] Except for the Normal group, all other groups underwent AD modeling: 48 hours prior to the experiment, hair on the dorsal neck region was meticulously removed using clippers and depilatory cream. […] Model and control group mice received daily application of blank ointment. Twenty-four hours after completing the 14-day modeling period, photographs of skin lesions were taken, and skin lesion and blood samples were collected. Skin Lesion Severity Score: […] Statistical analysis was performed on the data.
smiles,measurement,setting,value
"C[C@@H]1C[C@H]2[C@@H]3CCC4=CC(=O)C=C[C@]4(C)[C@@]3(F)[C@@H](O)C[C@]2(C)[C@@]1(O)C(=O)CO [Dex, Dexamethasone, reference compound]",ear thickness,[1]; Day 1,0.15±0.00 mm
same,ear thickness,[1]; Day 3,0.18±0.00 mm
same,ear thickness,[1]; Day 5,0.22±0.00 mm
same,ear thickness,[1]; Day 7,0.24±0.01 mm
same,ear thickness,[1]; Day 8,0.24±0.00 mm
same,ear thickness,[1]; Day 9,0.24±0.01 mm
same,ear thickness,[1]; Day 10,0.25±0.01 mm
same,ear thickness,[1]; Day 11,0.26±0.01 mm
same,ear thickness,[1]; Day 12,0.28±0.00 mm
same,ear thickness,[1]; Day 13,0.27±0.01 mm
same,ear thickness,[1]; Day 14,0.26±0.01 mm
same,Dermatitis Score,"[1]; ear, 1% ointment for 7 days, score max 12",3.50±0.22
same,TSLP,[2],1.30 ±0.17
same,Tnf,[2],1.38 ±0.22
same,Tnf,"[3]; kidney mRNA (relative, Gapdh)",6.62±0.68
same,Tnf,"[3]; liver mRNA (relative, Gapdh)",7.04±0.77
same,Tnf,"[3]; lung mRNA (relative, Gapdh)",8.99 ± 0.76
same,Hyaluronidase,[4],87.14 ± 9.63 ng/mL
same,TSLP,[5],2.13±0.26
same,Tnf,[5],2.30±0.36
same,β-Glucosaminidase,[6],9.78 ± 0.01 ng/mL
same,atopic dermatitis score,[7]; Day 1,0.00±0.00
same,ear thickness,[7]; Day 1,0.20±0.00 mm
same,atopic dermatitis score,[7]; Day 3,0.67±0.21
same,ear thickness,[7]; Day 3,0.23±0.00 mm
same,atopic dermatitis score,[7]; Day 5,1.50±0.22
same,ear thickness,[7]; Day 5,0.25±0.00 mm
same,atopic dermatitis score,[7]; Day 7,2.00±0.26
same,ear thickness,[7]; Day 7,0.26±0.00 mm
same,atopic dermatitis score,[7]; Day 8,2.83±0.31
same,ear thickness,[7]; Day 8,0.26±0.00 mm
same,atopic dermatitis score,[7]; Day 9,3.00±0.00
same,ear thickness,[7]; Day 9,0.27±0.00 mm
same,atopic dermatitis score,[7]; Day 10,3.17±0.17
same,ear thickness,[7]; Day 10,0.28±0.00 mm
same,atopic dermatitis score,[7]; Day 11,3.50±0.22
same,ear thickness,[7]; Day 11,0.27±0.00 mm
same,atopic dermatitis score,[7]; Day 12,3.00±0.26
same,ear thickness,[7]; Day 12,0.27±0.00 mm
same,atopic dermatitis score,[7]; Day 13,2.67±0.21
same,ear thickness,[7]; Day 13,0.27±0.00 mm
same,atopic dermatitis score,[7]; Day 14,2.00±0.26
same,ear thickness,[7]; Day 14,0.26±0.00 mm
same,IgE,"[7]; serum, AD mice",191.65 ± 39.26 ng/mL
same,Dermatitis Score,"[8]; back, 1% ointment for 7 days, score max 12",4.17±0.31
same,Skin thickness,"[8]; dorsal region, AD mice, 1% ointment",30.44±0.62
